T/C data for 23 compounds are collected here from PubChem BioAssay AID330 (DTP/NCI, 2004).

Where “and” joins values, the source holds several entries; their conditions need not be identical. Equal entries are not always repeated. Toxic doses and inconclusive results are not listed.

This experiment concerns P388 leukemia ip, CD2F1 mice, survival T/C. Put plainly: NCI In Vivo Anticancer Drug Screen. Data for tumor model P388 Leukemia (intraperitoneal) in CD2F1 (CDF1) mice. The conditions noted are these: endpoint: median survival time, higher = longer survival. The gist of the method: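 Mice carrying the transplanted tumor received test compound or vehicle. Survival was recorded in each group, and the value is the treated-group measurement divided by that of the vehicle-treated control group.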

The mark [1] stands for this setting: dose: 60.0 mg/kg/injection, schedule: Q01DX005 (ip), vehicle: Klucel (hydroxypropylcellulose) (HPC).
Setting [2] is: dose: 120.0 mg/kg/injection, schedule: Q01DX005 (ip), vehicle: Klucel (hydroxypropylcellulose) (HPC).
The mark [3] stands for this setting: dose: 240.0 mg/kg/injection, schedule: Q01DX005 (ip), vehicle: Klucel (hydroxypropylcellulose) (HPC).
[4] abbreviates: dose: 12.5 mg/kg/injection, schedule: Q01DX005 (ip), vehicle: Klucel (hydroxypropylcellulose) (HPC).
Setting [5] is: dose: 25.0 mg/kg/injection, schedule: Q01DX005 (ip), vehicle: Klucel (hydroxypropylcellulose) (HPC).
Where [6] appears, read: dose: 50.0 mg/kg/injection, schedule: Q01DX005 (ip), vehicle: Klucel (hydroxypropylcellulose) (HPC).
Setting [7] is: dose: 50.0 mg/kg/injection, schedule: Q01DX005 (ip), vehicle: saline.
Setting [8] is: dose: 50.0 mg/kg/injection, schedule: Q01DX009 (ip), vehicle: Klucel (hydroxypropylcellulose) (HPC).
Setting [9] is: dose: 100.0 mg/kg/injection, schedule: Q01DX009 (ip), vehicle: Klucel (hydroxypropylcellulose) (HPC).
[10] abbreviates: dose: 200.0 mg/kg/injection, schedule: Q01DX009 (ip), vehicle: Klucel (hydroxypropylcellulose) (HPC).
The mark [11] stands for this setting: dose: 60.0 mg/kg/injection, schedule: Q01DX005 (ip), vehicle: saline with Tween-80.
[12] abbreviates: dose: 120.0 mg/kg/injection, schedule: Q01DX005 (ip), vehicle: saline with Tween-80.
[13] abbreviates: dose: 240.0 mg/kg/injection, schedule: Q01DX005 (ip), vehicle: saline with Tween-80.
[14] abbreviates: dose: 25.0 mg/kg/injection, schedule: Q01DX009 (ip), vehicle: saline with Tween-80.
Setting [15] is: dose: 50.0 mg/kg/injection, schedule: Q01DX009 (ip), vehicle: saline with Tween-80.
Where [16] appears, read: dose: 100.0 mg/kg/injection, schedule: Q01DX009 (ip), vehicle: saline with Tween-80.
[17] abbreviates: dose: 6.25 mg/kg/injection, schedule: Q01DX005 (ip), vehicle: Klucel (hydroxypropylcellulose) (HPC).
Where [18] appears, read: dose: 50.0 mg/kg/injection, schedule: Q01DX005 (ip), vehicle: saline with Tween-80.
[19] abbreviates: dose: 100.0 mg/kg/injection, schedule: Q01DX005 (ip), vehicle: saline with Tween-80.

Consider `CCCCCCCCCCCCCCCCCc1cccc(OC)c1`, for which the T/C is, setting by setting: (dose: 7.5 mg/kg/injection, schedule: Q01DX009 (ip), vehicle: saline with Tween-80) 95 % of control; (dose: 15.0 mg/kg/injection, schedule: Q01DX009 (ip), vehicle: saline with Tween-80) 97 % of control; (dose: 30.0 mg/kg/injection, schedule: Q01DX009 (ip), vehicle: saline with Tween-80) 110 % of control.
As to `CCN(CC)P(CCCCP(N(CC)CC)N(CC)CC)N(CC)CC`, the T/C by setting is: under setting [1], 106 % of control; under setting [2], 103 % of control; under setting [3], 104 % of control.
For `O=C(Nc1ccc(NC(=O)c2ccc(C3=NCCCN3)cc2)cc1)Nc1ccc(C2=NCCCN2)cc1`, the T/C reads like this: (dose: 10.0 mg/kg/injection, schedule: Q01DX009 (ip), vehicle: saline with Tween-80) 163 % of control; (dose: 10.0 mg/kg/injection, schedule: Q01DX009 (ip), vehicle: saline) 113 % of control; (dose: 20.0 mg/kg/injection, schedule: Q01DX009 (ip), vehicle: saline) 159 % of control.
With `Cc1ccc(S(=O)C2=CCCO2)cc1` (stereo not given), the T/C under setting [4] is 100 % of control; the T/C under setting [5] was 102 % of control; the T/C under setting [6] was 101 % of control and 108 % of control; the T/C (dose: 100.0 mg/kg/injection, schedule: Q01DX005 (ip), vehicle: Klucel (hydroxypropylcellulose) (HPC)) is 119 % of control; the T/C (dose: 200.0 mg/kg/injection, schedule: Q01DX005 (ip), vehicle: Klucel (hydroxypropylcellulose) (HPC)) is 118 % of control.
As for `CC1=CCN(C)C(C#N)C1` (stereo not given), the T/C reads like this: (dose: 12.5 mg/kg/injection, schedule: Q01DX005 (ip), vehicle: saline) 97 % of control; (dose: 25.0 mg/kg/injection, schedule: Q01DX005 (ip), vehicle: saline) 105 % of control; under setting [7], 105 % of control.
With `COC(=O)c1ccc(CNC(=O)c2ccccc2C(=O)NCC2(CBr)OCCO2)cc1`, the T/C runs as follows: under setting [8], 113 % of control; under setting [9], 99 % of control; under setting [10], 96 % of control.
Turning to `O=C1/C(=C/c2ccccc2[N+](=O)[O-])COc2ccccc21`, the T/C runs as follows: under setting [11], 97 % of control; under setting [12], 103 % of control; under setting [13], 97 % of control.
Regarding `O=C1CCC(c2n[nH]c(=S)o2)N1` (stereo not given), the T/C under setting [11] is 104 % of control, the T/C under setting [12] was 105 % of control and the T/C under setting [13] is 108 % of control.
`CCN(CCc1ccc(N)cc1)C(Cc1ccccc1)c1cccc(OC)c1` (stereo not given): the T/C is 95 % of control (dose: 12.5 mg/kg/injection, schedule: Q01DX009 (ip), vehicle: saline with Tween-80); 95 % of control under setting [14]; 87 % of control under setting [15].
`Cc1cccc(Cl)c1NC1=NCCN1C(=O)CC(=O)c1ccccc1`: the T/C was 107 % of control (dose: 3.13 mg/kg/injection, schedule: Q01DX009 (ip), vehicle: Klucel (hydroxypropylcellulose) (HPC)); 105 % of control (dose: 6.25 mg/kg/injection, schedule: Q01DX009 (ip), vehicle: Klucel (hydroxypropylcellulose) (HPC)); 99 % of control and 100 % of control (dose: 12.5 mg/kg/injection, schedule: Q01DX009 (ip), vehicle: Klucel (hydroxypropylcellulose) (HPC)).
With `Cc1ccc(-c2cssc2=S)cc1`, the T/C under setting [14] was 96 % of control; the T/C under setting [15] was 95 % of control; the T/C under setting [16] was 92 % of control; the T/C (dose: 200.0 mg/kg/injection, schedule: Q01DX009 (ip), vehicle: saline with Tween-80) was 90 % of control.
For the compound `CC12C(=O)C(Br)C1CC2S(=O)(=O)O` (stereo not given), the T/C is, setting by setting: (dose: 25.0 mg/kg/injection, schedule: Q04DX002 (ip), vehicle: saline) 97 % of control; (dose: 50.0 mg/kg/injection, schedule: Q04DX002 (ip), vehicle: saline) 95 % of control; (dose: 100.0 mg/kg/injection, schedule: Q04DX002 (ip), vehicle: saline) 98 % of control; (dose: 200.0 mg/kg/injection, schedule: Q04DX002 (ip), vehicle: saline with Tween-80) 96 % of control; (dose: 400.0 mg/kg/injection, schedule: Q04DX002 (ip), vehicle: saline with Tween-80) 99 % of control.
In the case of `CCCCCCC1N=C(N)N=C(N)N1c1ccc(Cl)cc1` (stereo not given), the T/C under setting [17] is 100 % of control, the T/C under setting [4] was 110 % of control and the T/C under setting [5] was 106 % of control.
Regarding `CC(=O)N(c1nc2ccccc2s1)N1C(=O)c2ccccc2C1=O`, the T/C under setting [1] is 98 % of control, the T/C under setting [2] was 94 % of control and the T/C under setting [3] was 90 % of control.
Regarding `CC(C)CC(NC(=O)OCc1ccccc1)C(=O)NC(Cc1c[nH]c2ccccc12)C(=O)O` (stereo not given), the T/C under setting [18] was 100 % of control; the T/C under setting [19] was 103 % of control; the T/C (dose: 200.0 mg/kg/injection, schedule: Q01DX005 (ip), vehicle: saline with Tween-80) is 102 % of control.
Regarding `CC(=O)c1ccc[n+](Cc2ccc([N+](=O)[O-])cc2)c1`, the T/C is, setting by setting: under setting [14], 95 % of control; under setting [15], 100 % of control; under setting [16], 90 % of control.
Regarding `C[N+](C)(C)/C=C/c1ccc([N+](=O)[O-])o1`, the T/C was 100 % of control (dose: 50.0 mg/kg/injection, schedule: Q01DX009 (ip), vehicle: suspension in saline) and 96 % of control (dose: 100.0 mg/kg/injection, schedule: Q01DX009 (ip), vehicle: suspension in saline).
Take `CCOP(=O)(Nc1cc(C)ccc1C)OCC`: the T/C (dose: 50.0 mg/kg/injection, schedule: Q01DX009 (ip), vehicle: saline) was 100 % of control; the T/C (dose: 100.0 mg/kg/injection, schedule: Q01DX001 (ip), vehicle: saline with Tween-80) is 105 % of control; the T/C (dose: 100.0 mg/kg/injection, schedule: Q01DX009 (ip), vehicle: saline) is 104 % of control; the T/C (dose: 200.0 mg/kg/injection, schedule: Q01DX001 (ip), vehicle: saline with Tween-80) was 112 % of control; the T/C (dose: 200.0 mg/kg/injection, schedule: Q01DX009 (ip), vehicle: saline) is 106 % of control; the T/C (dose: 400.0 mg/kg/injection, schedule: Q01DX001 (ip), vehicle: saline with Tween-80) is 109 % of control.
`CN(C)P(=O)(OCC12C=C(OP(=O)(N(C)C)N(C)C)CC1(COP(=O)(N(C)C)N(C)C)C1CCC2C1)N(C)C` (stereo not given): the T/C is 101 % of control (dose: 60.0 mg/kg/injection, schedule: Q01DX005 (ip), vehicle: saline); 98 % of control (dose: 120.0 mg/kg/injection, schedule: Q01DX005 (ip), vehicle: saline); 102 % of control (dose: 240.0 mg/kg/injection, schedule: Q01DX005 (ip), vehicle: saline).
For the compound `Cc1ncc(C)c2c([N+](=O)[O-])cccc12`, the T/C is 106 % of control under setting [8], 110 % of control under setting [9] and 96 % of control under setting [10].
Turning to `CC(C)(C)c1ccc(OCc2cnc[nH]2)cc1`, the T/C runs as follows: (dose: 25.0 mg/kg/injection, schedule: Q01DX001 (ip), vehicle: saline) 102 % of control; (dose: 50.0 mg/kg/injection, schedule: Q01DX001 (ip), vehicle: saline) 101 % of control; (dose: 100.0 mg/kg/injection, schedule: Q01DX001 (ip), vehicle: saline) 110 % of control.
Turning to `CC1=NC(C)(Cc2ccccc2)SC1c1ccccc1` (stereo not given), the T/C is, setting by setting: under setting [18], 110 % of control; under setting [7], 100 % of control; under setting [19], 96 % of control; (dose: 100.0 mg/kg/injection, schedule: Q01DX005 (ip), vehicle: saline) 106 % of control; (dose: 200.0 mg/kg/injection, schedule: Q01DX005 (ip), vehicle: saline) 101 % of control.
Take `COc1ccc2c(C)cc(N/N=C(\C)c3ccccn3)nc2c1`: the T/C reads like this: (dose: 3.12 mg/kg/injection, schedule: Q01DX005 (ip), vehicle: Klucel (hydroxypropylcellulose) (HPC)) 100 % of control; under setting [17], 98 % of control; under setting [4], 90 % of control and 97 % of control; under setting [5], 95 % of control; under setting [6], 98 % of control and 97 % of control.
